Results as given in PMC11822212, “High-throughput screening identifies Aurora kinase B as a critical therapeutic target for Merkel cell carcinoma” (Nature Communications, 2025).

Assay: qHTS cell viability (CellTiter-Glo, 72 h; primary screen), control cell line
Format: cell-based, human
Settings: human, HACAT, read-out: Percent viability

COCCn1c2c([n+](Cc3cnccn3)c1C)C(=O)c1ccccc1C2=O [sepantronium bromide, reference compound]
viability at 72 h, 15.4 µM (HACAT cells (control cell line), Log (M) -4.81358): 21.2%
viability at 72 h, 5.12 µM (HACAT cells (control cell line), Log (M) -5.2907): 18.9%
viability at 72 h, 1.71 µM (HACAT cells (control cell line), Log (M) -5.76782): 48.7%
viability at 72 h, 0.569 µM (HACAT cells (control cell line), Log (M) -6.24494): 44.2%
viability at 72 h, 190 nM (HACAT cells (control cell line), Log (M) -6.72207): 35.1%
viability at 72 h, 63.2 nM (HACAT cells (control cell line), Log (M) -7.19919): 66.6%
viability at 72 h, 46.1 µM (HACAT cells, Log (M) -4.33646): 21.2%
viability at 72 h, 21.1 nM (HACAT cells, Log (M) -7.67631): 100%
viability at 72 h, 7.02 nM (HACAT cells, Log (M) -8.15343): 98.2%
viability at 72 h, 2.34 nM (HACAT cells, Log (M) -8.63055): 88.9%
viability at 72 h, 0.78 nM (HACAT cells, Log (M) -9.10767): 104%
